Measured values reported in US20130071897A1, “METHOD FOR CONTROLLING UNDESIRABLE BYPRODUCTS FORMATION CAUSED BY CONTAMINATING ORGANISMS IN THE PRODUCTION OF ETHANOL FROM SYNGAS” (COSKATA, INC., priority 2011, published 2013).
Several values for one entry are separate records, joined by “and”; a condition that tells them apart may be missing. Equal entries are not always repeated.

Tested on: butyrogen population
Assay: 2-L continuous syngas fermenter with butyrogen-contaminated Clostridium autoethanogenum culture
Assay type: cell-based
Description: Additional experiments were conducted to determine the effect of the crotonyl derivatives in continuous fermentations containing butyrogen contamination. Compounds A and D were tested in a 2-L fermenter containing a seed culture from a 10,000 gallon bioreactor used in a large scale fermentation run.
To initiate the 2 liter fermentation a seed culture from the large scale fermenter was introduced into the 2 liter fermenter and grown on yeast extract to an OD greater than 1 at which time a substantial production of butyrogens was observed. The 2 liter fermenter was a Sartorius Biostat B Series fermenter that operated as a continuously stirred tank with a mixing speed of 200 rpm. After 24 hours of initial growth a gas stream having a composition 38% CO, 38% H2, 15% C02 and the balance CH4 was introduced into the fermenter. The fermentation was conducted at a temperature of 37° C., a pH of 5.30±0.05 and contained approximately 2 liters of fermentation media having a composition found in Table 8. Fresh fermentation media was continually added to the 2 liter fermenter at rate sufficient to establish a mean cell retention time of 5.8 days. The fermentation was allowed to progress and different concentrations of the compounds A and D were added to the fermentation as intermittent injections at different times. Each injection was allowed to wash out of the fermenter before next injection. The presence of acetate and butyrate compounds in the fermenter along with the OD of the fermentation media are shown in FIG. 3.
After approximately 500 hours of fermenter operation compound A was added directly into the fermenter to a concentration of 500 ppm when the OD was 1.82 and butyrate concentration was 4.5 g/L. Following introduction of the compound, the OD decreased rapidly by almost 50% in the first 24 hours and the butyrate concentration decreased by 20% in the same time period. Also in the first 24 hours the butanol content increased rapidly by 6-fold to 0.68 g/L, indicating rapid conversion of the butyric acid to butanol. The rate of conversion of the butyric acid and the dilution rate of the media combined to dramatically decrease the butyrate production rate until it was brought down to zero within 80 hours of initially adding compound A. (See FIG. 4) In addition the OD continued to decrease to a low of 0.54 after 80 hours.
After approximately 700 hours of fermenter operation and the washout of the first 500 ppm addition of compound A, another 50 ppm of compound A was added directly into the fermenter. A decrease in OD and butyrate concentration (See FIG. 3) followed the 50 ppm addition and continued for at least for the first 3 days.
After approximately another 8 days and the washout of the 50 ppm addition of compound A, the butyrate concentration increased to 2 g/L. At this time another 100 ppm of compound A was added directly into the fermenter approximately 890 hours into the run. […] After about 24 hours, the butyrate concentration began to decrease again declining almost 50% over the next 4 days. (See FIG. 3)
Fermenter operation was continued under the same operating conditions following the 100 ppm addition of compound A. After allowing 20 days for the complete wash out of compound A, 100 ppm of compound D was added directly into the fermenter approximately 1370 hours into the fermenter run. Upon the addition of compound D there was a sharp rise in the ethanol concentration and acetic acid concentration accompanied by a decrease in the butyrate production.
For 12 days after the first injection of compound D into the fermenter, the fermenter was allowed to wash out compound D. Then 500 ppm of compound D was injected directly into the fermenter after about 1660 hours of fermenter operation. (See FIG. 3) The resulting concentrations of the C2 and C4 alcohols and acids from the time of adding the 500 ppm of compound D are shown in Table 10.

[1] = 100 ppm compound D at approximately 1370 hours
[2] = 500 ppm compound D, 0 Hr after addition
[3] = 500 ppm compound D, 30 Hr after addition
[4] = 500 ppm compound D, 49 Hr after addition
[5] = 500 ppm compound D, 73 Hr after addition
[6] = 500 ppm compound D, 123 Hr after addition
[7] = 500 ppm compound D, 145 Hr after addition
[8] = 500 ppm compound D, 168 Hr after addition
[9] = 500 ppm compound D, 193 Hr after addition
[10] = 500 ppm compound D, 217 Hr after addition
[11] = 500 ppm compound D, 240 Hr after addition
[12] = 500 ppm compound A, 0.0 Hr after addition
[13] = 500 ppm compound A, 24.0 Hr after addition
[14] = 500 ppm compound A, 49.0 Hr after addition
[15] = 500 ppm compound A, 80.0 Hr after addition
[16] = 500 ppm compound A, 121.0 Hr after addition
[17] = 500 ppm compound A, 145.0 Hr after addition
[18] = 500 ppm compound A, first 24 hours
[19] = approximately 140 hours after 500 ppm addition of compound A

O=C(O)C=C(C(F)(F)F)C(F)(F)F [D, 4,4,4-trifluoro-3-(trifluoromethyl)crotonic acid]
Butanol concentration [1]: rose temporarily
Butyrate Production [1]: decrease
Ethanol concentration and acetic acid concentration [1]: sharp rise
Inhibition of butyrogens versus homoacetogenic organisms (500 ppm compound D): butyrogens were specifically inhibited whereas the homoacetogenic organisms were not inhibited
Acetic acid [2]: 8.72 g/L
Butyric acid [2]: 1.51 g/L
EtOH [2]: 0.55 g/L
OD @600 nm [2]: 1.40
n-Butanol [2]: 0.21 g/L
Acetic acid [3]: 8.48 g/L
Butyric acid [3]: 1.47 g/L
EtOH [3]: 0.61 g/L
OD @600 nm [3]: 1.35
n-Butanol [3]: 0.23 g/L
Acetic acid [4]: 8.64 g/L
Butyric acid [4]: 1.44 g/L
EtOH [4]: 0.69 g/L
OD @600 nm [4]: 1.23
n-Butanol [4]: 0.26 g/L
Acetic acid [5]: 8.56 g/L
Butyric acid [5]: 1.37 g/L
EtOH [5]: 0.68 g/L
OD @600 nm [5]: 1.12
n-Butanol [5]: 0.26 g/L
Acetic acid [6]: 8.72 g/L
Butyric acid [6]: 1.41 g/L
EtOH [6]: 0.53 g/L
OD @600 nm [6]: 0.92
n-Butanol [6]: 0.19 g/L
Acetic acid [7]: 8.75 g/L
Butyric acid [7]: 1.36 g/L
EtOH [7]: 0.88 g/L
OD @600 nm [7]: 1.12
n-Butanol [7]: 0.26 g/L
Acetic acid [8]: 8.83 g/L
Butyric acid [8]: 1.11 g/L
EtOH [8]: 0.95 g/L
OD @600 nm [8]: 1.38
n-Butanol [8]: 0.28 g/L
Acetic acid [9]: 8.86 g/L
Butyric acid [9]: 1.12 g/L
EtOH [9]: 0.87 g/L
OD @600 nm [9]: 1.18
n-Butanol [9]: 0.24 g/L
Acetic acid [10]: 9.05 g/L
Butyric acid [10]: 1.13 g/L
EtOH [10]: 0.84 g/L
OD @600 nm [10]: 1.24
n-Butanol [10]: 0.21 g/L
Acetic acid [11]: 9.21 g/L
Butyric acid [11]: 1.17 g/L
EtOH [11]: 0.82 g/L
OD @600 nm [11]: 1.25
n-Butanol [11]: 0.21 g/L

CCOC(=O)C=C(C(F)(F)F)C(F)(F)F [Compound A, ethyl 4,4,4-trifluoro-3-(trifluoromethyl)crotonate]
Effect on the butyrogen population shortly after addition (2-L butyrogenic reactor, 500, 50 and 100 ppm trials): inhibitory and bactericidal effect
Concentration of ethanol and acetic acid (50 ppm compound A at approximately 700 hours): continued increase
OD and butyrate concentration (50 ppm compound A at approximately 700 hours, at least first 3 days): decrease
Ethanol concentration (100 ppm compound A at approximately 890 hours): began to immediately increase
Decline of butyrate concentration (100 ppm compound A at approximately 890 hours, over 4 days, starting about 24 hours after addition): ~50%
Acetic acid [12]: 3.237 g/L
Butyric acid [12]: 4.5 g/L and 4.503 g/L
Ethanol [12]: 0.026 g/L
OD @600 nm [12]: 1.82
n-Butanol [12]: 0.109 g/L
Acetic acid [13]: 2.728 g/L
Butyric acid [13]: 3.600 g/L
Ethanol [13]: 0.266 g/L
OD @600 nm [13]: 1.09
n-Butanol [13]: 0.68 g/L and 0.681 g/L
Acetic acid [14]: 2.333 g/L
Butyric acid [14]: 3.074 g/L
Ethanol [14]: 0.255 g/L
OD @600 nm [14]: 0.76
n-Butanol [14]: 0.601 g/L
Acetic acid [15]: 1.959 g/L
Butyric acid [15]: 2.542 g/L
Ethanol [15]: 0.212 g/L
OD @600 nm [15]: 0.54
n-Butanol [15]: 0.497 g/L
Acetic acid [16]: 2.446 g/L
Butyric acid [16]: 1.842 g/L
Ethanol [16]: 0.345 g/L
OD @600 nm [16]: 0.75
n-Butanol [16]: 0.513 g/L
Acetic acid [17]: 4.082 g/L
Butyric acid [17]: 1.645 g/L
Ethanol [17]: 0.441 g/L
OD @600 nm [17]: 1.17
n-Butanol [17]: 0.311 g/L
Decrease of OD [18]: ~50%
Decrease of butyrate concentration [18]: 20%
Increase of butanol content [18]: 6 fold
Time until butyrate production rate was brought down to zero (500 ppm compound A, from initial addition): ≤ 80 h
Acetic acid production [19]: dramatic rise
Increase in ethanol [19]: over 100%
OD recovery [19]: nearly recovered to its original level
